Assays:
Rat ACC2 = conditions: Trumble et al. (1995), cited from earlier work; for IC50: literature value for rat ACC2 enzyme
Rat ACC1 = Rat ACC1 (Rattus norvegicus, UniProt P11497); conditions: literature value, Trumble et al. (1995); cited from earlier work
recombinant human ACC2 = target: T1, recombinant human ACC2 (Homo sapiens, UniProt O00763, V2141I); assay: ACC enzyme activity assay ([14C]bicarbonate fixation) with purified recombinant human ACC2; assay type: biochemical; conditions: for Km: substrate varied, all other reagents saturating, 37° C.; for IC50: concentration dependent inhibition of recombinant human ACC2
T1 construct: To delete the NH2-terminus 148 amino acid of human ACC2; 6xHis (C); made in house; host or cells: Sf9 insect cells infected with recombinant baculovirus (pBlueBac-human-ACC2-Delta148-V5-Myc-His-WT); purified on a c-Myc-5 IgG column
T1 sequence (O00763 149-2458 V2141I): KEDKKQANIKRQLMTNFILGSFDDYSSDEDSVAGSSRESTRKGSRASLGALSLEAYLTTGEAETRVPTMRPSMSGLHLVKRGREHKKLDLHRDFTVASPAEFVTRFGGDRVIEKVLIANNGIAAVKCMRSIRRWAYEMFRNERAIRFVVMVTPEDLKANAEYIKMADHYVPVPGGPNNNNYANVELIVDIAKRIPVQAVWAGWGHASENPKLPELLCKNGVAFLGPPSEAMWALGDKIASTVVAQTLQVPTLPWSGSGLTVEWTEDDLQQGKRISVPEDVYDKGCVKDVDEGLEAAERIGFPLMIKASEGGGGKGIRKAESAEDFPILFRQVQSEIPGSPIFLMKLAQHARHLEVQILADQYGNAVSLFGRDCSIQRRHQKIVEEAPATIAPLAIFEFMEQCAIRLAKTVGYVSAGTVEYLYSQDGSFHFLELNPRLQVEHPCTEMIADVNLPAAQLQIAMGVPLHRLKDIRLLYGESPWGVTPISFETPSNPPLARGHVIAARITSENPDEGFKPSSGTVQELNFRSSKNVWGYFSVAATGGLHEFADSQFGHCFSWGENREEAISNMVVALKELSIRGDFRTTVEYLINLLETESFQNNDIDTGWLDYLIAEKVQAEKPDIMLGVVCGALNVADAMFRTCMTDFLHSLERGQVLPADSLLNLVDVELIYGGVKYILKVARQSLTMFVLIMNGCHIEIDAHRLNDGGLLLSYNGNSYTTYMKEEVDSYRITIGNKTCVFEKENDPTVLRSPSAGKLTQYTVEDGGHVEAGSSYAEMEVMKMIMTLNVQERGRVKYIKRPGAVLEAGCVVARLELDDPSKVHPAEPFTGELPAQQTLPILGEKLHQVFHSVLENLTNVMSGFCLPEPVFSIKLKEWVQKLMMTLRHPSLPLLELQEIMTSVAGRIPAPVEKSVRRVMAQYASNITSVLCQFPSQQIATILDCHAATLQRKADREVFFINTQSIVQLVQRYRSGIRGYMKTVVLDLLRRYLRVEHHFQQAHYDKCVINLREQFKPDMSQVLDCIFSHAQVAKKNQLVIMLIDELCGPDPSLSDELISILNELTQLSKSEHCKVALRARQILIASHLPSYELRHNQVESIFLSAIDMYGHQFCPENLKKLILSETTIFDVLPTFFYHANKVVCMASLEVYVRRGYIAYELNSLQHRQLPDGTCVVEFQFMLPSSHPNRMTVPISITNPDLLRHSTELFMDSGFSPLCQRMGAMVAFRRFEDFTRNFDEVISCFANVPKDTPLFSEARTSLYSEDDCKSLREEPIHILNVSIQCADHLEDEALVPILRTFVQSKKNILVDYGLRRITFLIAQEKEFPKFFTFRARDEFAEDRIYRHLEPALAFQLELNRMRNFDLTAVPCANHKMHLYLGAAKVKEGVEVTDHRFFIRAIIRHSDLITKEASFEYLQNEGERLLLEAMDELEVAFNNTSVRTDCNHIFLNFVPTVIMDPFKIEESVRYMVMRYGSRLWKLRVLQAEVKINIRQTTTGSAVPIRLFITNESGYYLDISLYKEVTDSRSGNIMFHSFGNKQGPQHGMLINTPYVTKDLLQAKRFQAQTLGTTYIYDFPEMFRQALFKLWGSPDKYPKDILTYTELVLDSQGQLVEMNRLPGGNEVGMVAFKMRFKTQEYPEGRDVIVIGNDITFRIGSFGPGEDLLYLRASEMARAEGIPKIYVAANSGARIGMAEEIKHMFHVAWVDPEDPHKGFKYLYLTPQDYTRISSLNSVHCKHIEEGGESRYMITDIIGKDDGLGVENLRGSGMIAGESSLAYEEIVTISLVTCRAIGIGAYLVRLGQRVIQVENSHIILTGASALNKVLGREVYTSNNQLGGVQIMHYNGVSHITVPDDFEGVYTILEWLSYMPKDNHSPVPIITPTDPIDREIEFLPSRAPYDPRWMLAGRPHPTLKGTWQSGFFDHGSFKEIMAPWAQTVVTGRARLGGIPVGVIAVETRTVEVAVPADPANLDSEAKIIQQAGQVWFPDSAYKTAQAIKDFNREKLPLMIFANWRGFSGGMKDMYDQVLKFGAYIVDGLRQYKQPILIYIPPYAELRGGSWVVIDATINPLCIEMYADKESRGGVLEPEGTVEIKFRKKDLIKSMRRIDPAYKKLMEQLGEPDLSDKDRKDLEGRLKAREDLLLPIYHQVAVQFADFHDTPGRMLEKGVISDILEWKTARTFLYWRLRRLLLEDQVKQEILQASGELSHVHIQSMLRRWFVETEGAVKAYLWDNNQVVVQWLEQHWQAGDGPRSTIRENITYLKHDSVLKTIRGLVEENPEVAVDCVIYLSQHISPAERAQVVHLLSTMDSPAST
Method: ACC enzymatic assays were carried out essentially according to Tanabe et al. (Tanabe et al., (1981) Methods Enzymol. 71 Pt C, 5–16) with modifications. […] Aliquots of 30 μl of 25 mM KH[^14C]O3 (specific activity 1.3 μCi/μmol, final KH[^14C]O3, concentration 5 mM) was then added to the mixture to initiate the reaction which was carried out for 10 min at 37° C. At the end, the reactions were quenched with 50 μl 2 N HCl and the vials were heated for 2 hours at 80° C. to remove excess bicarbonate as ^14CO2. Scintillant was then added and the acid-stable malonyl CoA remaining in the vial was counted in a scintillation counter. ACC specific activities were expressed as nmol/min/mg protein.

Row | Structure (SMILES) | Km (Rat ACC2; literature value) | Km (Rat ACC1) | Km (recombinant human ACC2) | IC50 (Rat ACC2) | IC50 (recombinant human ACC2) | other results
1 | Nc1ncnc2c1ncn2[C@@H]1O[C@H](COP(=O)(O)OP(=O)(O)OP(=O)(O)O)[C@@H](O)[C@H]1O [ATP] | 58 µM | 110 µM | 270 µM | – | – | –
2 | CC(=O)SCCNC(=O)CCNC(=O)[C@H](O)C(C)(C)COP(=O)(O)OP(=O)(O)OC[C@H]1O[C@@H](n2cnc3c(N)ncnc32)[C@H](O)[C@@H]1OP(=O)(O)O [Acetyl CoA, acetyl CoA] | 32 µM | 22 µM | – | – | – | –
3 | O=C(O)CC(O)(CC(=O)O)C(=O)O [Citrate] | – | – | – | – | – | Kact (Rat ACC2; literature value): 2.1 mM; Kact (Rat ACC1): 3 mM
4 | O=C(O)O [HCO3^−, bicarbonate] | 2300 µM | 2700 µM | 5000 µM | – | – | –
5 | CC(C)(COP(=O)(O)OP(=O)(O)OC[C@H]1O[C@@H](n2cnc3c(N)ncnc32)[C@H](O)[C@@H]1OP(=O)(O)O)[C@@H](O)C(=O)NCCC(=O)NCCSC(=O)CC(=O)O [malonyl CoA] | – | – | – | 10.6 µM | 26.7 µM | –
6 | CCCCCCCCCCCCCCCC(=O)SCCNC(=O)CCNC(=O)[C@H](O)C(C)(C)COP(=O)(O)OP(=O)(O)OC[C@H]1O[C@@H](n2cnc3c(N)ncnc32)[C@H](O)[C@@H]1OP(=O)(O)O [palmitoyl CoA] | – | – | – | 2.2 µM | 4.4 µM | –

From US7211423B2 (Bristol-Myers Squibb Co., priority 2004, dated 2007)
